# Measured values: patent publication US20240287463A1, “INDUCIBLE TISSUE CONSTRUCTS AND USES THEREOF” (Massachusetts Institute of Technology, priority 2020, published 2024)
# Columns and labels:
# Type in all cases: cell-based
# [1] = target: T1, inducible caspase-9 (iCasp9) (Homo sapiens, UniProt P55211); experiment: caspase-9 activation in CID-treated iCasp9-GFP J2 fibroblasts (antibody staining, Caspase-Glo 9)
# T1 construct: #15567 pMSCV-F-del Casp9.IRES.GFP; host or cells: 3T3-J2 fibroblasts, lentivirally transduced
# Text: Inducible caspase-9 (iCasp9), which is activated by treatment with a small molecule chemical inducer of dimerization (CID; also known as rapalog, an analog of rapamycin) and leads to subsequent cell death through the intrinsic apoptosis pathway was utilized (FIG. 1A). The safety and efficacy of the iCasp9 transgene and CID have previously been shown in vitro and in vivo in animals and humans (A. Di Stasi, et al. (2011) dx.doi.org/10.1056/NEJMoa1106152; T. Gargett and M. P. Brown (2014) Front. Pharmacol. 5; K. C. Straathof, et al. (2005) Blood 105, 4247, each of which is herein incorporated by this reference). To generate inducible cells, 3T3-J2 fibroblasts (‘J2’) were transduced with lentivirus with a bidirectional expression cassette encoding iCasp9 and GFP genes (#15567 pMSCV-F-del Casp9.IRES.GFP; cloned to a lentivirus plasmid backbone with an SFFV promoter). FACS was used to enrich the infected population for the 15% highest-expression GFP+ cells. […] To transfect J2s, virus was added to growth media and cultured overnight. iCasp9-GFP J2 fibroblasts at passage 22 were grown at confluence for 2 weeks to mimic experimental culture conditions, without a decrease in the percentage of the cell population with positive GFP expression. iCasp9-GFP J2s were plated in monolayer and dosed with ethanol vehicle or CID (B/B homodimerizer, AP20187; rapalog; Takara/ClonTech), and then assayed for cell viability using the CellTiter-Glo® Luminescent Cell Viability Assay (Promega), for caspase-9 activation using the CaspGLOW™ Fluorescein Active Caspase-9 Staining Kit (Thermo Fisher Scientific) and Caspase-Glo®9 Assay Systems (Promega), or stained with the Pacific Blue Annexin V/SYTOXTM AADvanced™ Apoptosis Kit (Thermo Fisher) to identify apoptotic cells by flow cytometry (>100,000 cells analyzed per condition).
# After iCasp9-GFP J2 fibroblasts were exposed to CID, iCasp9 dimers were detected by staining with a caspase-9 antibody (FIG. 1C). […]
# iCasp9-GFP J2s [2] = experiment: Annexin V / SYTOX apoptosis flow cytometry; conditions: within the first hour after CID treatment
# Text: (§1) Inducible caspase-9 (iCasp9), which is activated by treatment with a small molecule chemical inducer of dimerization (CID; also known as rapalog, an analog of rapamycin) and leads to subsequent cell death through the intrinsic apoptosis pathway was utilized (FIG. 1A). The safety and efficacy of the iCasp9 transgene and CID have previously been shown in vitro and in vivo in animals and humans (A. Di Stasi, et al. (2011) dx.doi.org/10.1056/NEJMoa1106152; T. Gargett and M. P. Brown (2014) Front. Pharmacol. 5; K. C. Straathof, et al. (2005) Blood 105, 4247, each of which is herein incorporated by this reference). To generate inducible cells, 3T3-J2 fibroblasts (‘J2’) were transduced with lentivirus with a bidirectional expression cassette encoding iCasp9 and GFP genes (#15567 pMSCV-F-del Casp9.IRES.GFP; cloned to a lentivirus plasmid backbone with an SFFV promoter). FACS was used to enrich the infected population for the 15% highest-expression GFP+ cells. […]
# (§2) After iCasp9-GFP J2 fibroblasts were exposed to CID, iCasp9 dimers were detected by staining with a caspase-9 antibody (FIG. 1C). […] To confirm that CID-triggered caspase-9 activation led to apoptosis, unfixed cells were stained with Annexin V, which binds to an early indicator of apoptosis, and SYTOX, a general marker of cell death, and analyzed by flow cytometry.
# iCasp9-GFP J2s [3] = experiment: cell viability / removal from monolayer culture (CellTiter-Glo); conditions: after CID exposure (500 nM, 50 nM, 5 nM in FIG. 1G)
# Text: as §1, §2
# iCasp9-GFP fibroblasts = experiment: viability of hydrogel-encapsulated monoculture fibroblasts
# iCasp9-GFP J2s [4] = experiment: fibroblast deletion from 3D spheroid-laden hydrogels
# Text: Previous work identified that phenotypic stability and longevity of primary hepatocytes cultured as 3D microtissues were transiently supported by pre-aggregation to increase homotypic cell-cell interactions, and were further enhanced upon inclusion of J2 fibroblasts (C. Y. Li et al. (2014) Tissue Eng. Part A 20, 2200). Thus, iCasp9-GFP J2 fibroblasts were incorporated into these 3D hepatic ensembles, which were fabricated by plating primary human hepatocytes and fibroblasts in microwells in order to facilitate physical cell-cell contacts, as previously described (K. Stevens et al. (2013) Nat. Commun. 4, 1847; K. R. Stevens et al. (2017) Sci. Transl. Med. 9, eaaah5505). […] Hepatic spheroids (about 150 hepatocytes per spheroid, ˜100 μm diameter) were imaged and analyzed to quantify the extent of spheroid compaction. […] Resulting morphologies were traced and measured for circularity. […]
# To probe the dependence of hepatocyte phenotypic stability on fibroblast co-culture in 3D, fibroblasts were deleted from spheroid-laden hydrogel cultures using CAMEO after 1 day of hepatocyte-fibroblast co-culture. Fibroblasts were robustly removed from 3D co-cultures as described in the above Examples, and detected by immunofluorescence imaging (FIG. 3I). […]
# T1 sequence (P55211 with tags, fused parts or gaps limits assumed): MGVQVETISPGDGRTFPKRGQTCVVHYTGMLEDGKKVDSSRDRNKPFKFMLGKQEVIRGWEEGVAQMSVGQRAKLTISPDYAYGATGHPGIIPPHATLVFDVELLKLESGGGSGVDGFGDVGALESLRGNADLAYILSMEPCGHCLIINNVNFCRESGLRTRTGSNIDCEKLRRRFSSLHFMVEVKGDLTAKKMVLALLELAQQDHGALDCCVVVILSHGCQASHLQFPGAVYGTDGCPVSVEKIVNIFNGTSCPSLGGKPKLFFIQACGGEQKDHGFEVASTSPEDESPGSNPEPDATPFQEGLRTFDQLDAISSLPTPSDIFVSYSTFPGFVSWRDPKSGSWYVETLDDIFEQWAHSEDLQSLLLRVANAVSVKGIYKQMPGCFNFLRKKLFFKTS
smiles,measurement,setting,value
"CC[C@H](C(=O)N1CCCC[C@H]1C(=O)O[C@H](CCc1ccc(OC)c(OC)c1)c1cccc(OCC(=O)NCC(CNC(=O)COc2cccc([C@@H](CCc3ccc(OC)c(OC)c3)OC(=O)[C@@H]3CCCCN3C(=O)[C@@H](CC)c3cc(OC)c(OC)c(OC)c3)c2)CN(C)C)c1)c1cc(OC)c(OC)c(OC)c1 [CID, AP20187]",Caspase-9 staining,"[1]; 50 nM CID, collected 15 and 30 minutes after treatment",increased
same,caspase-9 cleavage compared to wild-type J2s,[1]; 15 minutes after CID dosing,16 fold
same,caspase-9 cleavage compared to wild-type J2s,[1]; 30 minutes after CID dosing,18 fold
same,proportion of iCasp9-GFP J2s undergoing apoptosis,iCasp9-GFP J2s [2],increased in a time-dependent manner
same,time to efficient removal from culture,iCasp9-GFP J2s [3],≤ 1 h
same,fibroblast viability,"iCasp9-GFP fibroblasts; hydrogel-encapsulated, after 6 hours of CID",undetectable
same,fibroblast regrowth,iCasp9-GFP fibroblasts; over the course of 21 days after CID,did not regrow
same,iCasp9-GFP staining,"iCasp9-GFP J2s [4]; 50 nM CID at day 1, imaged starting at day 2",negligible
same,deletion of iCasp9-GFP J2s throughout the hydrogel,"iCasp9-GFP J2s [4]; spheroid-laden hydrogel cultures, data not shown",robust and specific deletion
